Data on 54 molecules can be found in PubChem BioAssay AID1259246 (Broad Institute, 2017).

Inconclusive results are not listed. Calls of active or inactive are those of the source.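 How the source made its calls: active means valid dose-response fit whose half-maximal growth-inhibiting concentration is at or below a set limit above the top tested dose; inconclusive means flat fit with effect between 30 and 70%, or poor fit; inactive means half-maximal concentration above a set limit.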

One assay can be described thus: antibacterial activity against Clostridioides difficile – 10-point retest, dose response (AID 1259246). To be noted: Clostridioides difficile clinical isolate growth, OD600, 24 h; at 60 µM (top of the series).
On to `COc1ccccc1-c1ccc2c(c1)O[C@H](CN(C)Cc1ccc3c(c1)OCO3)[C@H](C)CN([C@H](C)CO)S2(=O)=O`, for which the activity change, negative = inhibition is -2.89% (inactive).

The assay is the same for the next values; noted with them: Clostridioides difficile clinical isolate growth, OD600, 24 h; at 68 µM (top of the series).
With `O=C(C[C@H]1C[C@@H]2c3cc(NS(=O)(=O)c4ccc(F)cc4)ccc3O[C@@H]2[C@@H](CO)O1)NCc1ccc(Cl)cc1`, the activity change, negative = inhibition was 8.4% (inactive).

Staying with this assay, now noted: Clostridioides difficile clinical isolate growth, OD600, 24 h; at 120 µM (top of the series).
`Cc1cc(C(=O)Nc2cccc3c2O[C@H](CN(C)Cc2ccc(-c4ccccc4)cc2)[C@H](C)CN([C@@H](C)CO)C3=O)n(C)n1`: the activity change, negative = inhibition was 0.388% (inactive).
Take `C[C@@H]1CN([C@H](C)CO)S(=O)(=O)c2ccc(C#CCN(C)C)cc2O[C@@H]1CN(C)Cc1ccc(F)cc1`: the activity change, negative = inhibition was 0.874% (inactive).
In the case of `C[C@H](CO)N1C[C@H](C)[C@@H](CN(C)C(=O)NC2CCCCC2)Oc2c(NC(=O)Nc3ccccc3)cccc2C1=O`, the activity change, negative = inhibition is 12.2% (inactive).
Turning to `C/C=C/c1ccc2c(c1)O[C@H](CN(C)Cc1ccc(F)cc1)[C@H](C)CN([C@H](C)CO)S2(=O)=O`, the activity change, negative = inhibition is 11.8% (inactive).
For the molecule `C[C@@H]1CN([C@@H](C)CO)C(=O)Cc2cc(N(C)C)ccc2O[C@@H]1CN(C)Cc1ccc(-c2ccccc2)cc1`, the activity change, negative = inhibition is 30.2% (inactive).
`C[C@H](CO)N1C[C@H](C)[C@H](CN(C)Cc2ccc(-c3ccccc3)cc2)Oc2ccc(NC(=O)CCCN(C)C)cc2CC1=O`: the activity change, negative = inhibition is 37.3% (inactive).
For the molecule `COc1ccc(NC(=O)Nc2cccc3c2O[C@@H](CN(C)Cc2ccc(Oc4ccccc4)cc2)[C@@H](C)CN([C@@H](C)CO)C3=O)cc1`, the activity change, negative = inhibition was 30.5% (inactive).
Still for that read-out and setting: the value for `C[C@H]1CN([C@@H](C)CO)S(=O)(=O)c2ccc(C3=CCCCC3)cc2O[C@@H]1CN(C)Cc1cccnc1` was 13.2% (inactive).
As for `C[C@H](CO)N1C[C@H](C)[C@H](CN(C)Cc2cccnc2)Oc2cc(C#CC3CCCCC3)ccc2S1(=O)=O`, the activity change, negative = inhibition was 24.1% (inactive).
In the case of `C[C@@H]1CCCCO[C@H](CN(C)S(=O)(=O)c2ccc(F)cc2)[C@H](C)CN([C@H](C)CO)C(=O)c2cc(NC(=O)Nc3cccc4ccccc34)ccc2O1`, the activity change, negative = inhibition was 23.1% (inactive).
Turning to `CO[C@H]1CN(C)C(=O)c2cc(NC(=O)c3nc4ccccc4s3)ccc2OC[C@@H](C)N(Cc2ccncc2)C[C@@H]1C`, the activity change, negative = inhibition was 5.15% (inactive).
With `CNC[C@H]1Oc2ccc(N)cc2CC(=O)N([C@@H](C)CO)C[C@H]1C`, the activity change, negative = inhibition is -3.55% (inactive).
On the same count and under the same terms, the value for `Cc1ccc(S(=O)(=O)N[C@@H]2CC[C@@H](CCNS(=O)(=O)Cc3ccccc3)O[C@@H]2CO)cc1` was -1.17% (inactive); that for `O=C(C[C@H]1C[C@H]2c3cc(NS(=O)(=O)c4ccc(F)cc4)ccc3O[C@H]2[C@@H](CO)O1)NCc1ccc(-c2ccccc2)cc1` was 10.6% (inactive); that for `C[C@@H]1CN([C@@H](C)CO)C(=O)c2cc(NC(=O)NC3CCCCC3)ccc2O[C@@H]1CN(C)C(=O)Nc1ccc(F)cc1` was 58.5% (inactive).
With `CO[C@H]1CN(C)C(=O)c2ccc(NC(=O)c3ccc(-c4ccccc4)cc3)cc2OC[C@H](C)NC[C@H]1C`, the activity change, negative = inhibition was 4.8% (inactive).
As for `C[C@H](CO)N1C[C@H](C)[C@@H](CN(C)Cc2ccc(Oc3ccccc3)cc2)Oc2c(NC(=O)Nc3ccccc3)cccc2C1=O`, the activity change, negative = inhibition was 23.8% (inactive).
In the case of `COc1ccccc1CNC(=O)C[C@H]1C[C@@H]2c3cc(NC(=O)NC4CCCC4)ccc3O[C@@H]2[C@@H](CO)O1`, the activity change, negative = inhibition is -0.476% (inactive).
Regarding `C[C@@H]1CN([C@H](C)CO)C(=O)c2cccc(NC(=O)Nc3ccccc3)c2O[C@@H]1CN(C)Cc1ccc(Oc2ccccc2)cc1`, the activity change, negative = inhibition was 32.9% (inactive).
Consider `COc1ccc(-c2ccc([C@H]3[C@H](C#N)N(C(=O)NC4CCCCC4)[C@H]3CO)cc2)cc1`, for which the activity change, negative = inhibition is 7.21% (inactive).
Regarding `C[C@H](CO)N1C[C@H](C)[C@@H](CN(C)Cc2ccncc2)Oc2cc(-c3ccccc3)ccc2S1(=O)=O`, the activity change, negative = inhibition was 21.1% (inactive).
As for `CO[C@@H]1CN(C)C(=O)c2cc(NC(=O)c3ccc(-c4ccccc4)cc3)ccc2OC[C@H](C)NC[C@@H]1C`, the activity change, negative = inhibition is 31.8% (inactive).
In the case of `C[C@@H]1CN([C@H](C)CO)C(=O)c2cccc(NC(=O)Nc3ccc(C(F)(F)F)cc3)c2O[C@@H]1CN(C)S(=O)(=O)c1ccc(Cl)cc1`, the activity change, negative = inhibition is 46.7% (inactive).
As to `CC(C)CC#Cc1ccc2c(c1)O[C@@H](CN(C)Cc1ccc3c(c1)OCO3)[C@@H](C)CN([C@@H](C)CO)S2(=O)=O`, the activity change, negative = inhibition was 22.9% (inactive).
With `CO[C@@H]1CN(C)C(=O)c2ccc(NC(=O)c3ccc(-c4ccccc4)cc3)cc2OC[C@H](C)NC[C@@H]1C`, the activity change, negative = inhibition was 17% (inactive).
Take `Cc1ccc(-c2ccc3c(c2)O[C@H](CN(C)Cc2ccncc2)[C@@H](C)CN([C@H](C)CO)S3(=O)=O)cc1`: the activity change, negative = inhibition was 22.9% (inactive).
Still for that read-out and setting: the value for `CO[C@@H]1CN(C)C(=O)c2ccc(NC(=O)c3nc4ccccc4s3)cc2OC[C@H](C)N(Cc2ccncc2)C[C@@H]1C` was 10.8% (inactive); that for `C[C@@H]1CN([C@@H](C)CO)S(=O)(=O)c2ccc(/C=C/c3ccccc3)cc2O[C@H]1CN(C)C(=O)c1ccccc1` was 18.9% (inactive).
With `C[C@@H]1CN([C@@H](C)CO)C(=O)c2cc(NC(=O)Nc3cccc4ccccc34)ccc2O[C@@H](C)CCCCO[C@H]1CN(C)S(=O)(=O)c1ccc(F)cc1`, the activity change, negative = inhibition was 34.1% (inactive).
On to `CC(C)CC#Cc1ccc2c(c1)O[C@H](CN(C)Cc1ccc3c(c1)OCO3)[C@@H](C)CN([C@@H](C)CO)S2(=O)=O`, for which the activity change, negative = inhibition is 21.9% (inactive).
On to `C[C@@H]1CCCCO[C@H](CN(C)S(=O)(=O)c2ccc(F)cc2)[C@H](C)CN([C@@H](C)CO)C(=O)c2cc(NC(=O)Nc3cccc4ccccc34)ccc2O1`, for which the activity change, negative = inhibition was 22.9% (inactive).
As to `CO[C@@H]1CN(C)C(=O)c2cc(NC(=O)c3ccc(-c4ccccc4)cc3)ccc2OC[C@@H](C)NC[C@@H]1C`, the activity change, negative = inhibition was 6.12% (inactive).
With `C[C@@H]1CN([C@@H](C)CO)C(=O)Cc2cc(NS(=O)(=O)c3cccs3)ccc2O[C@@H]1CN(C)S(=O)(=O)c1ccc(Cl)cc1`, the activity change, negative = inhibition is 32.8% (inactive).
Turning to `Cc1noc(C)c1NC(=O)Nc1cccc2c1O[C@H](CN(C)Cc1ccc(Cl)c(Cl)c1)[C@H](C)CN([C@@H](C)CO)C2=O`, the activity change, negative = inhibition was 28.7% (inactive).
Same read-out and setting: the value for `COc1ccc(NC(=O)Nc2cccc3c2O[C@H](CN(C)Cc2ccc(Oc4ccccc4)cc2)[C@H](C)CN([C@H](C)CO)C3=O)cc1` was -0.653% (inactive); that for `COc1ccc(CN2C[C@H](C)[C@@H](OC)CN(C)C(=O)c3ccc(NC(=O)c4nc5ccccc5s4)cc3OC[C@@H]2C)cc1` was 9.23% (inactive); that for `C[C@H]1CN([C@@H](C)CO)C(=O)c2cccc(NC(=O)Nc3ccc(C(F)(F)F)cc3)c2O[C@@H]1CN(C)Cc1ccc(-c2ccccc2)cc1` was 31.9% (inactive).
Still for that read-out and setting: the value for `C[C@@H]1CN([C@H](C)CO)C(=O)c2cc(NC(=O)Nc3cccc4ccccc34)ccc2O[C@@H](C)CCCCO[C@H]1CN(C)S(C)(=O)=O` was 1.6% (inactive).
`COc1ccccc1S(=O)(=O)N(C)C[C@@H]1Oc2cc(/C=C/c3ccccc3)ccc2S(=O)(=O)N([C@@H](C)CO)C[C@H]1C`: the activity change, negative = inhibition was 32.3% (inactive).
Consider `Cc1ccc(S(=O)(=O)N[C@@H]2CC[C@H](CCNS(=O)(=O)Cc3ccccc3)O[C@H]2CO)cc1`, for which the activity change, negative = inhibition is -2.21% (inactive).
Take `COc1ccc(S(=O)(=O)N(C)C[C@@H]2Oc3ccc(NC(=O)CCCN(C)C)cc3CC(=O)N([C@@H](C)CO)C[C@H]2C)cc1`: the activity change, negative = inhibition is -5.12% (inactive).
Consider `C[C@H](CO)N1C[C@H](C)[C@H](CN(C)Cc2ccc(Oc3ccccc3)cc2)Oc2c(NC(=O)Nc3ccccc3)cccc2C1=O`, for which the activity change, negative = inhibition was 10.9% (inactive).
Consider `C[C@H]1CN([C@@H](C)CO)C(=O)Cc2cc(NC(=O)C3CC3)ccc2O[C@H]1CN(C)Cc1ccc(-c2ccccc2)cc1`, for which the activity change, negative = inhibition is 18.3% (inactive).

Staying with this assay, now noted: Clostridioides difficile clinical isolate growth, OD600, 24 h; at 135 µM (top of the series).
Turning to `C[C@@H]1CN([C@@H](C)CO)C(=O)Cc2cc(NC(=O)CCCN(C)C)ccc2O[C@@H]1CN(C)Cc1ccc(Oc2ccccc2)cc1`, the activity change, negative = inhibition was 18% (inactive).
In the case of `CNC[C@H]1Oc2c(N)cccc2C(=O)N([C@H](C)CO)C[C@@H]1C`, the activity change, negative = inhibition is -1.95% (inactive).
On to `C[C@@H]1CN([C@H](C)CO)C(=O)Cc2cc(NC(=O)C3CC3)ccc2O[C@H]1CN(C)C`, for which the activity change, negative = inhibition was 32.9% (inactive).
As to `C[C@@H]1CN([C@H](C)CO)C(=O)c2cc(NC(=O)Nc3ccc4c(c3)OCO4)ccc2O[C@H]1CN(C)Cc1ccccc1`, the activity change, negative = inhibition is -5.34% (inactive).
Regarding `C[C@@H]1CN([C@@H](C)CO)C(=O)Cc2cc(NC(=O)CCCN(C)C)ccc2O[C@H]1CN(C)S(C)(=O)=O`, the activity change, negative = inhibition was -4.68% (inactive).
Consider `C[C@@H]1CN([C@@H](C)CO)C(=O)Cc2cc(NC(=O)C3CC3)ccc2O[C@@H]1CN(C)Cc1ccccc1`, for which the activity change, negative = inhibition is 0.355% (inactive).
`COc1ccccc1CNC(=O)C[C@H]1C[C@@H]2c3cc(NC(=O)NC4CCCC4)ccc3O[C@@H]2[C@H](CO)O1`: the activity change, negative = inhibition was 4.13% (inactive).
Turning to `C[C@@H]1CN([C@H](C)CO)C(=O)Cc2cc(NS(=O)(=O)c3ccccc3)ccc2O[C@@H]1CN(C)Cc1ccc(-c2ccccc2)cc1`, the activity change, negative = inhibition is 31.9% (inactive).
As for `C[C@@H]1CN([C@@H](C)CO)C(=O)Cc2cc(NC(=O)CCCN(C)C)ccc2O[C@H]1CN(C)C`, the activity change, negative = inhibition was -6.21% (inactive).
